Reference: patent US10626136B2, “Compositions and methods for improving Rebaudioside X solubility” (The Coca-Cola Company, priority 2012, dated 2020)
One block for each compound: values may come before it.

Key:
Assay type in all cases: physicochemical
[1] = Approximate water solubility by solvent addition method (aliquots of water, visual inspection)
Method: The approximate aqueous solubility can be determined by a solvent addition method in which a weighed sample is treated with aliquots of water. The mixture is generally vortexed and/or sonicated between additions to facilitate dissolution. Complete dissolution of the test material is determined by visual inspection. Solubility is estimated based on the total solvent used to provide complete dissolution.
(§1) The approximate water solubility of Form A and amorphous Rebaudioside X were determined by a solvent addition method in which a weighed sample was treated with aliquots of water. The mixture was generally vortexed and/or sonicated between additions to facilitate dissolution. Complete dissolution of the test material was determined by visual inspection. Solubility was estimated based on the total solvent used to provide complete dissolution. The actual solubility may be greater than the value calculated because of the use of solvent aliquots that were too large or due to a slow rate of dissolution.
as §1, with “approximate” for “approximate water”, “the complexes was measured” for “Form A and amorphous Rebaudioside X were determined”

[2] = Water solubility of material before and after the water process (Example 4); details: Example 4, before and after heating to 121° C. in water and spray drying
[3] = Dynamic Vapor Sorption (DVS)
Method: The Dynamic Vapor Sorption (DVS) DVS data were collected on a VTI SGA-100 Vapor Sorption Analyzer. NaCl and PVP were used as calibration standards. The sample was not dried prior to analysis. Sorption and desorption data were collected over a range from 5 to 95% RH at 10% RH increments under a nitrogen purge. The equilibrium criterion used for analysis was less than 0.0100% weight change in 5 minutes with a maximum equilibration time of 3 hours. Data were not corrected for the initial moisture content of the samples.

[4] = Duration of clarity of aqueous solutions, with or without filtration
Text: The water solubility of amorphous Rebaudioside X prepared according to Example 4 was compared in various test material/water ratios with or without filtration prior to solubility determination. Generally, filtration performed after dissolution of sample assist the duration of clarity of the sample (or delays the precipitation/recrystallization of sample).

[5] = Equilibrium solubility in water by UV (205 nm)
Method: Samples were analyzed with a Cary 50 UV-Vis dual beam spectrophotometer. The detector was zeroed with a cuvette filled with water prior to sample analysis. Samples were analyzed at room temperature in 1.0 cm quartz cuvette using a scan rate of 600 nm/min in a range of 200-400 nm.
25.8 mg of amorphous Rebaudioside X was added to a 10-mL volumetric flask and dissolved 10 mL with water. This stock solution was diluted to five concentration levels for UV measurement.
A calibration curve at 205 nm was established (Abs at 205 nm vs. concentration) to provide the equation y=5.0625x+0.0022. R^2 was 0.9999. This equation was used for the subsequent determination of Rebaudioside X concentrations.
250 mg of amorphous Rebaudioside X was added to an amber vial and 10 mL of water was added. The mixture was stirred at room temperature about 10 minutes to yield a transparent solution with only small amount of solid remaining. The mixture became opaque rapidly. The mixture was placed on a mechanical oscillator set at a speed of 250 and 25° C. At the sampling time point of 1, 16, 24, 48, 72, 96, and 192 hours, an aliquot of the slurry was transferred to a centrifuge tube and separated at a speed of 16K rcf for 15 minutes. 200 μL of the clear supernatant was transferred to a 50-mL volumetric flask, 10 mL of water was added and mixed well before UV analysis.

Approximate Water Solubility [1]: >10000 µg/mL
SMILES: C=C1C[C@@]23CCC4[C@](C)(C(=O)OC5OC(CO)C(O)C(OC6OC(CO)C(O)C(O)C6O)C5OC5OC(CO)C(O)C(O)C5O)CCC[C@@]4(C)[C@@H]2CCC1(OC1OC(CO)C(O)C(OC2OC(CO)C(O)C(O)C2O)C1OC1OC(CO)C(O)C(O)C1O)C3 (stereo partly drawn) [Amorphous (ethanol process)]

Approximate Water Solubility [1]: 1400 µg/mL | approximate aqueous solubility [1]: 0.1 to about 0.14 | water solubility ([2]; listed as Form A Rebaudioside X): 0.05%
SMILES: C=C1C[C@@]23CCC4[C@](C)(C(=O)OC5OC(CO)C(O)C(OC6OC(CO)C(O)C(O)C6O)C5OC5OC(CO)C(O)C(O)C5O)CCC[C@@]4(C)[C@@H]2CCC1(OC1OC(CO)C(O)C(OC2OC(CO)C(O)C(O)C2O)C1OC1OC(CO)C(O)C(O)C1O)C3 (stereo partly drawn) [Form A]

solids recovered after DVS ([3]; XRPD after the DVS analysis): x-ray amorphous | weight loss upon desorption ([3]; desorption from 95% to 5% RH): 26.0 wt % | weight loss upon equilibration ([3]; equilibration at 5% RH): 3.1 wt % | weight gain on sorption ([3]; increasing the relative humidity from 5% to 95% RH): 26.3 wt % | hygroscopicity ([3]; judged from the large weight change): hygroscopic | approximate aqueous solubility [1]: greater than 0.3% | approximate water solubility compared to Form A Rebaudioside X [1]: substantially increased | water solubility [2]: greater than 1% | Duration of Clarity of Sample ([4]; Sample 1: 250 mg/500 mL water, not filtered): >60 days | Duration of Clarity of Sample ([4]; Sample 2: 500 mg/500 mL water, not filtered): >60 days | Duration of Clarity of Sample ([4]; Sample 6: 1750 mg/500 mL water, not filtered): ~0.12 days | Duration of Clarity of Sample ([4]; Sample 8: 1000 mg/100 mL water, filtered (0.22 μm membrane)): ~0.083 days | Average Sample Concentration ([5]; 250 mg in 10 mL water, 25° C.): Average Sample Concentration = 2.6 mg/mL | Original Sample Concentration ([5]; 250 mg in 10 mL water, 25° C., sampling time 1 hrs): 5.8 mg/mL | Original Sample Concentration ([5]; 250 mg in 10 mL water, 25° C., sampling time 16 hrs): 2.7 mg/mL | Original Sample Concentration ([5]; 250 mg in 10 mL water, 25° C., sampling time 24 hrs): 2.6 mg/mL | Original Sample Concentration ([5]; 250 mg in 10 mL water, 25° C., sampling time 48 hrs): 2.5 mg/mL | Original Sample Concentration ([5]; 250 mg in 10 mL water, 25° C., sampling time 72 hrs): 2.8 mg/mL | Original Sample Concentration ([5]; 250 mg in 10 mL water, 25° C., sampling time 96 hrs): 2.8 mg/mL | Original Sample Concentration ([5]; 250 mg in 10 mL water, 25° C., sampling time 192 hrs): 2.6 mg/mL
SMILES: C=C1C[C@@]23CC[C@H]4[C@@](C)(CCC[C@@]4(C)C(=O)O[C@@H]4O[C@H](CO)[C@@H](O)[C@H](O[C@@H]5O[C@H](CO)[C@@H](O)[C@H](O)[C@H]5O)[C@H]4O[C@@H]4O[C@H](CO)[C@@H](O)[C@H](O)[C@H]4O)[C@@H]2CC[C@]1(O[C@@H]1O[C@H](CO)[C@@H](O)[C@H](O[C@@H]2O[C@H](CO)[C@@H](O)[C@H](O)[C@H]2O)[C@H]1O[C@@H]1O[C@H](CO)[C@@H](O)[C@H](O)[C@H]1O)C3 [amorphous Rebaudioside X]
Duration of Clarity of Sample ([4]; Sample 4: 1000 mg/500 mL water, not filtered): ^bMost Rebaudioside X dissolved quickly. However, a small amount of floating particles remained. | XRPD pattern of the solids recovered after solubility testing ([5]; after 8 days solubility testing in water): consistent with Form A, indicating conversion

Approximate Water Solubility [1]: >10000 µg/mL
SMILES: C=C1C[C@@]23CCC4[C@](C)(C(=O)OC5OC(CO)C(O)C(OC6OC(CO)C(O)C(O)C6O)C5OC5OC(CO)C(O)C(O)C5O)CCC[C@@]4(C)[C@@H]2CCC1(OC1OC(CO)C(O)C(OC2OC(CO)C(O)C(O)C2O)C1OC1OC(CO)C(O)C(O)C1O)C3 (stereo partly drawn) [Amorphous (water process)]
